Assay results taken from ChEMBL document CHEMBL1201862, “PubChem BioAssay data set” (2004).
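Five concentrations, 48 hours, 96-well plates. GI50 = concentration required for 50% inhibition of growth.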 The source made the active and inactive calls. No stated cut-off is given here; in the data, active = GI50 up to about 1.1 µM and inactive = higher.

Columns and labels:
Experiment in all cases: NCI tumour cell line growth inhibition, 48 h
SK-MEL-2 = system: SK-MEL-2
CCRF-CEM = system: CCRF-CEM
A498 = system: A498
U-251 = system: U-251
M14 = system: M14
786-0 = system: 786-0
SF-268 = system: SF-268
SW-620 = system: SW-620
HCC 2998 = system: HCC 2998
K562 = system: K562
HOP-92 = system: HOP-92
SF-539 = system: SF-539
OVCAR-4 = system: OVCAR-4
UACC-62 = system: UACC-62
HOP-62 = system: HOP-62
A549 = system: A549
IGROV-1 = system: IGROV-1
SK-MEL-28 = system: SK-MEL-28
HL-60 = system: HL-60
SK-MEL-5 = system: SK-MEL-5

## COc1ccc(-c2nnc(-c3c(C)n(C)n(-c4ccccc4)c3=O)o2)cc1
SK-MEL-2
  GI50: > 100 µM (inactive)
CCRF-CEM
  GI50: > 100 µM (inactive)
A498
  GI50: > 100 µM (inactive)
U-251
  GI50: > 100 µM (inactive)
M14
  GI50: > 100 µM (inactive)
786-0
  GI50: > 100 µM (inactive)
SF-268
  GI50: > 100 µM (inactive)
SW-620
  GI50: > 100 µM (inactive)
HCC 2998
  GI50: > 100 µM (inactive)
K562
  GI50: > 100 µM (inactive)
HOP-92
  GI50: > 100 µM (inactive)
SF-539
  GI50: > 100 µM (inactive)
OVCAR-4
  GI50: > 100 µM (inactive)
UACC-62
  GI50: > 100 µM (inactive)
HOP-62
  GI50: > 100 µM (inactive)
A549
  GI50: > 100 µM (inactive)
IGROV-1
  GI50: > 100 µM (inactive)
SK-MEL-28
  GI50: > 100 µM (inactive)
HL-60
  GI50: > 100 µM (inactive)

## O=C(CSCC(=O)N/N=C\c1cccc([N+](=O)[O-])c1)N/N=C\c1cccc([N+](=O)[O-])c1
SK-MEL-2
  GI50: 37.3 µM (inactive)
CCRF-CEM
  GI50: > 100 µM (inactive)
A498
  GI50: 41.1 µM (inactive)
U-251
  GI50: 13.5 µM (inactive)
M14
  GI50: > 100 µM (inactive)
786-0
  GI50: 18.2 µM (inactive)
SF-268
  GI50: 39.9 µM (inactive)
SW-620
  GI50: > 100 µM (inactive)
HCC 2998
  GI50: 30.9 µM (inactive)
HOP-92
  GI50: 32.4 µM (inactive)
SF-539
  GI50: 24 µM (inactive)
OVCAR-4
  GI50: > 100 µM (inactive)
UACC-62
  GI50: 70.8 µM (inactive)
HOP-62
  GI50: 2.01 µM (inactive)
SK-MEL-5
  GI50: > 100 µM (inactive)
A549
  GI50: 66.5 µM (inactive)
IGROV-1
  GI50: 23.1 µM (inactive)
SK-MEL-28
  GI50: > 100 µM (inactive)
HL-60
  GI50: > 100 µM (inactive)

## CNS(=O)(=O)NNS(=O)(=O)c1ccc(Cl)cc1
SK-MEL-2
  GI50: > 100 µM (inactive)
CCRF-CEM
  GI50: > 100 µM (inactive)
A498
  GI50: > 100 µM (inactive)
M14
  GI50: > 100 µM (inactive)
786-0
  GI50: > 100 µM (inactive)
SF-268
  GI50: > 100 µM (inactive)
SW-620
  GI50: > 100 µM (inactive)
HCC 2998
  GI50: > 100 µM (inactive)
K562
  GI50: > 100 µM (inactive)
HOP-92
  GI50: > 100 µM (inactive)
SF-539
  GI50: > 100 µM (inactive)
OVCAR-4
  GI50: > 100 µM (inactive)
UACC-62
  GI50: > 100 µM (inactive)
HOP-62
  GI50: > 100 µM (inactive)
SK-MEL-5
  GI50: > 100 µM (inactive)
A549
  GI50: > 100 µM (inactive)
IGROV-1
  GI50: > 100 µM (inactive)
SK-MEL-28
  GI50: > 100 µM (inactive)
HL-60
  GI50: > 100 µM (inactive)

## C[C@H]1CCC2C(CN3CCCCC3)C(=O)OC2[C@]2(C)C(=O)CC(N3CCCCC3)C12O (stereo partly specified)
SK-MEL-2
  GI50: 10.7 µM (inactive)
CCRF-CEM
  GI50: 2.34 µM (inactive)
A498
  GI50: 4.12 µM (inactive)
U-251
  GI50: 5.53 µM (inactive)
786-0
  GI50: 4.54 µM (inactive)
SF-268
  GI50: 6.95 µM (inactive)
SW-620
  GI50: 3.64 µM (inactive)
HCC 2998
  GI50: 5.87 µM (inactive)
K562
  GI50: 2.4 µM (inactive)
HOP-92
  GI50: 2.68 µM (inactive)
SF-539
  GI50: 2.26 µM (inactive)
UACC-62
  GI50: 2.36 µM (inactive)
SK-MEL-5
  GI50: 4.73 µM (inactive)
A549
  GI50: 28.2 µM (inactive)
IGROV-1
  GI50: 18.8 µM (inactive)
SK-MEL-28
  GI50: 4.18 µM (inactive)
HL-60
  GI50: 1.56 µM (inactive)

## c1ccc(C2C3=C(Nc4ncnn42)c2ccccc2C3)cc1 (stereo unspecified)
SK-MEL-2
  GI50: 11.6 µM (inactive)
CCRF-CEM
  GI50: 15.5 µM (inactive)
A498
  GI50: 51.2 µM (inactive)
U-251
  GI50: 2.93 µM (inactive)
M14
  GI50: 5.38 µM (inactive)
786-0
  GI50: 25.4 µM (inactive)
SF-268
  GI50: 20 µM (inactive)
SW-620
  GI50: 4.93 µM (inactive)
HCC 2998
  GI50: 8.15 µM (inactive)
K562
  GI50: 7.93 µM (inactive)
HOP-92
  GI50: 21.8 µM (inactive)
SF-539
  GI50: 11.4 µM (inactive)
OVCAR-4
  GI50: 95.9 µM (inactive)
UACC-62
  GI50: 4.99 µM (inactive)
HOP-62
  GI50: 31.7 µM (inactive)
SK-MEL-5
  GI50: 10.9 µM (inactive)
A549
  GI50: 34.5 µM (inactive)
IGROV-1
  GI50: 86.1 µM (inactive)
HL-60
  GI50: 5.07 µM (inactive)

## CCN(CC)CCc1c2c(nc3ccccc13)C(=O)c1cccnc1C2=O
SK-MEL-2
  GI50: 2.94 µM (inactive)
CCRF-CEM
  GI50: 1.97 µM (inactive)
A498
  GI50: 1.97 µM (inactive)
U-251
  GI50: 2.88 µM (inactive)
M14
  GI50: 0.454 µM (active)
786-0
  GI50: 2.07 µM (inactive)
SF-268
  GI50: 2.44 µM (inactive)
SW-620
  GI50: 0.424 µM (active)
HCC 2998
  GI50: 2.54 µM (inactive)
K562
  GI50: 1.16 µM (inactive)
HOP-92
  GI50: 3.13 µM (inactive)
OVCAR-4
  GI50: 0.726 µM (active)
UACC-62
  GI50: 1.54 µM (inactive)
HOP-62
  GI50: 2.44 µM (inactive)
SK-MEL-5
  GI50: 0.209 µM (active)
A549
  GI50: 2.88 µM (inactive)
IGROV-1
  GI50: 1.74 µM (inactive)
SK-MEL-28
  GI50: 1.8 µM (inactive)
HL-60
  GI50: 0.251 µM (active)

## COc1cc2nc(-c3c(F)cccc3F)n(Cc3c(F)cccc3F)c2cc1Cc1c(F)cccc1F
SK-MEL-2
  GI50: > 49.8 µM (inactive)
CCRF-CEM
  GI50: > 100 µM (inactive)
A498
  GI50: 3.62 µM (inactive)
U-251
  GI50: > 100 µM (inactive)
M14
  GI50: > 24.3 µM (inactive)
786-0
  GI50: > 100 µM (inactive)
SF-268
  GI50: > 72.1 µM (inactive)
SW-620
  GI50: > 100 µM (inactive)
HCC 2998
  GI50: 20.6 µM (inactive)
K562
  GI50: > 28.6 µM (inactive)
HOP-92
  GI50: 2.79 µM (inactive)
SF-539
  GI50: > 68.7 µM (inactive)
OVCAR-4
  GI50: 1.84 µM (inactive)
UACC-62
  GI50: 2.64 µM (inactive)
HOP-62
  GI50: > 100 µM (inactive)
SK-MEL-5
  GI50: 6.28 µM (inactive)
A549
  GI50: > 47.8 µM (inactive)
IGROV-1
  GI50: 0.292 µM (active)
SK-MEL-28
  GI50: 0.35 µM (active)
